pIC50: −log10 of the molar value. Activity calls are given as the source filed them. The calls are words filed in the database; no cut-off is given here.
Tests used:
[1] = test system: A549; assay: Downregulation of TMBIM6 protein expression in human A549 cells at 10 uM by Western blot analysis; type: functional, cell-based
[2] = Selectivity index, ratio of IC50 for cytotoxicity against human BEAS-2B cells to IC50 for antiproliferative activity against human A549 cells; type: toxicity, cell-based; settings: read-out: Ratio IC50
[3] = molecular target: Bax inhibitor 1 (Homo sapiens) (UniProt P55061); assay: Thermal stabilization of TMBIM6 in human A549 cells at 46 to 60 degreeC at 100 uM incubated for 2 hrs by CETSA based Western blot analysis; type: cell-based
Bax inhibitor 1 (Homo sapiens), sequence (P55061 whole entry): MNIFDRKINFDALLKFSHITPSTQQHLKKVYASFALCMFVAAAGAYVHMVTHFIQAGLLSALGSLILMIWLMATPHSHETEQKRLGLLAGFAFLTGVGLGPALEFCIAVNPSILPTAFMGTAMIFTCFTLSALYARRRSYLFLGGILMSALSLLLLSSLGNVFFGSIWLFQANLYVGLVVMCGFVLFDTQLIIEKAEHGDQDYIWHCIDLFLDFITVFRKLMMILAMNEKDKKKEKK

[4] = test system: A549; assay: Induction of ferroptosis in human A549 cells assessed as increase in malondialdehyde content; type: functional, cell-based
[5] = molecular target: Bax inhibitor 1 (Homo sapiens) (UniProt P55061); assay: Thermal stabilization of TMBIM6 in human A549 cells at 54 to 60 degreeC at 100 uM incubated for 2 hrs by CETSA based Western blot analysis; type: cell-based
[6] = test system: A549; assay: Induction of ferroptosis in human A549 cells assessed as reduction in GSH content incubated for 2 to 12 hrs; type: functional, cell-based; settings: time 2-12 hrs
[7] = test system: A549; assay: Activation of Nrf2-Keap1-HO-1 signaling pathway in human A549 cells assessed as increase in oxidative stress by measuring lipid ROS level at 10 to 20 uM by Western blot analysis; type: cell-based; settings: filed as activator, dose 10-20 µM
[8] = test system: HepG2; assay: Antiproliferative activity against human HepG2 cells assessed as inhibition of cell growth incubated for 24 to 72 hrs by CCK8 assay; type: functional, cell-based
[9] = test system: A549; assay: Induction of ferroptosis in human A549 cells assessed as increase in […] accumulation; type: functional, cell-based
[10] = test system: A549; assay: Induction of autophagy in human A549 cells assessed as effect on PINK1 protein expression at 10 to 20 uM incubated for 24 hrs by Western blot analysis; type: functional, cell-based; settings: dose 10-20 µM
[11] = test system: NCI-H460; assay: Antiproliferative activity against human NCI-H460 cells assessed as inhibition of cell growth incubated for 24 to 72 hrs by CCK8 assay; type: functional, cell-based
[12] = test system: Cell membrane; assay: Induction of mitochondrial membrane depolarization in human A549 cells assessed as increases in mitochondrial Ca2+ concentration incubated for 8 hrs by Rhod-2 AM probe based flow cytometric analysis; type: cell membranes
[13] = test system: A549; assay: Induction of TMBIM6-VDAC1 protein-protein interaction in human A549 cells at 20 uM by immunoprecipitation analysis; type: cell-based; settings: filed as activator
[14] = test system: A549; assay: Antiproliferative activity against human A549 cells assessed as inhibition of cell growth incubated for 24 to 72 hrs by CCK8 assay; type: functional, cell-based
[15] = test system: Cell membrane; assay: Induction of mitochondrial membrane depolarization in human A549 cells assessed as increases in mitochondrial Ca2+ concentration by Rhod-2 AM probe based flow cytometric analysis; type: cell membranes
[16] = molecular target: Non-selective voltage-gated ion channel VDAC1 (Homo sapiens) (UniProt P21796); assay: Activation of VDAC1 channel in human A549 cells assessed as increase in mitochondrial Ca2+ endocytosis by staining based analysis; type: cell-based; settings: filed as opener
Non-selective voltage-gated ion channel VDAC1 (Homo sapiens), sequence (P21796 whole entry): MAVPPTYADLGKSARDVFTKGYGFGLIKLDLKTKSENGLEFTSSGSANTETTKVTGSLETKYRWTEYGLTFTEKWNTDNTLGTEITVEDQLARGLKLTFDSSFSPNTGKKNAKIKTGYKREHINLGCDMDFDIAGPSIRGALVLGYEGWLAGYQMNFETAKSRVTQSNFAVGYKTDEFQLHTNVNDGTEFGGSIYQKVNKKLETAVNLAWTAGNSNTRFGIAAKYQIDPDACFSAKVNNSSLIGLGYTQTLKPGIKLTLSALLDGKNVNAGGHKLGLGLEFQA

[17] = test system: A549; assay: Induction of autophagy in human A549 cells assessed as effect on LC3II protein expression at 10 to 20 uM incubated for 24 hrs by Western blot analysis; type: functional, cell-based; settings: dose 10-20 µM
[18] = test system: Cell membrane; assay: Induction of mitochondrial membrane potential loss in human A549 cells at 10 to 20 uM incubated for 6 hrs by JC-1 staining based flow cytometric analysis; type: cell membranes; settings: dose 10-20 µM
[19] = molecular target: T1, Cystine/glutamate transporter (Homo sapiens) (UniProt Q9UPY5); assay: Inhibition of SLC7A11 in human […] cells at 10 to 20 uM by Western blot analysis; type: cell-based; settings: A549, dose 10-20 µM
T1 sequence (whole entry): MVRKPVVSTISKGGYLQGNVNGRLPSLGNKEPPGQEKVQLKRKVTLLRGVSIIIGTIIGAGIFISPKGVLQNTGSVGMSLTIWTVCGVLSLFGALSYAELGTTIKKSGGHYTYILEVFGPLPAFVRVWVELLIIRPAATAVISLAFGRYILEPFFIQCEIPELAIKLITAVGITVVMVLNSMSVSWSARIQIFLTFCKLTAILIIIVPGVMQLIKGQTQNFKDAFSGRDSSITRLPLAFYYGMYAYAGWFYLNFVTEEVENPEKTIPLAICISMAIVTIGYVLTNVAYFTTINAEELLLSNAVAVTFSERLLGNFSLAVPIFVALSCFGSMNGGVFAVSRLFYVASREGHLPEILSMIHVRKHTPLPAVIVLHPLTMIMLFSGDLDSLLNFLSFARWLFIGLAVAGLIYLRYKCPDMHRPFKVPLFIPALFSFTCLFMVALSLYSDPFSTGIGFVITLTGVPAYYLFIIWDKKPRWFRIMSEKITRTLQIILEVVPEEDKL

[20] = test system: A549; assay: Increase in Ca2+ level in human A549 cell cytoplasm at 5 to 20 uM incubated for 8 hrs by confocal photographic analysis; type: functional, cell-based; settings: dose 5-20 µM
[21] = test system: A549; assay: Induction of ROS accumulation in human A549 cells at 20 uM by DCFH/C11-BODIPY probe based flow cytometric analysis; type: functional, cell-based; settings: time 2-24 hrs, TDE = time-dependent effect
[22] = test system: A549; assay: Induction of autophagy in human A549 cells assessed as effect on LC3II protein expression upto 20 uM incubated for 24 hrs by Western blot analysis; type: functional, cell-based
[23] = test system: A549; assay: Induction of lipid ROS accumulation in human A549 cells at 20 uM incubated for 24 hrs in presence of DFO by DCFH/C11-BODIPY probe based flow cytometric analysis; type: functional, cell-based
[24] = molecular target: Bax inhibitor 1 (Homo sapiens) (UniProt P55061); assay: Binding affinity to TMBIM6 in human A549 cells by cluster analysis; type: cell-based
[25] = test system: A549; assay: Stabilization of […] in human A549 cells assessed as reduction in polyubiquitination at 20 uM in presence of MG132 by immunoprecipitation analysis; type: cell-based
[26] = test system: A549; assay: Induction of lipid ROS accumulation in human A549 cells at 20 uM incubated for 24 hrs in presence of Lip-1 by DCFH/C11-BODIPY probe based flow cytometric analysis; type: functional, cell-based
[27] = test system: A549; assay: Induction of autophagy in human A549 cells incubated for 12 hrs by MDC staining based flow cytometric analysis; type: functional, cell-based
[28] = test system: A549; assay: Induction of autophagy in human A549 cells assessed as effect on PINK1 protein expression upto 20 uM incubated for 24 hrs by Western blot analysis; type: functional, cell-based
[29] = molecular target: T1, Cystine/glutamate transporter (Homo sapiens); assay: Inhibition of SLC7A11 in human […] cells at 5 to 20 uM by Western blot analysis; type: cell-based; settings: A549, dose 5-20 µM
[30] = test system: A549; assay: Induction of lipid ROS accumulation in human A549 cells at 20 uM incubated for 24 hrs in presence of Fer-1 by DCFH/C11-BODIPY probe based flow cytometric analysis; type: functional, cell-based
[31] = test system: A549; assay: Antiproliferative activity against human A549 cells assessed as inhibition of cell growth incubated for 48 hrs by CCK8 assay; type: functional, cell-based; settings: A549, 48 h
[32] = test system: A549; assay: Activation of Nrf2-Keap1-HO-1 signaling pathway in human A549 cells assessed as increase in oxidative stress by measuring lipid ROS level at 5 to 20 uM by Western blot analysis; type: cell-based; settings: filed as activator, dose 5-20 µM
[33] = test system: A549; assay: Induction of ROS accumulation in human A549 cells incubated for 24 hrs by DCFH/C11-BODIPY probe based flow cytometric analysis; type: functional, cell-based; settings: dose 5-20 µM
[34] = test system: A549; assay: Induction of ferroptosis in human A549 cells assessed as increase in malondialdehyde content at 5 to 20 uM; type: functional, cell-based; settings: dose 5-20 µM
[35] = test system: A549; assay: Antiproliferative activity against human A549 cells assessed as inhibition of cell growth incubated for 24 hrs by CCK8 assay; type: functional, cell-based; settings: A549, 24 h
[36] = test system: A549; assay: Induction of lipid ROS accumulation in human A549 cells at 20 uM incubated for 24 hrs in presence of NAC by DCFH/C11-BODIPY probe based flow cytometric analysis; type: functional, cell-based
[37] = molecular target: Bax inhibitor 1 (Homo sapiens) (UniProt P55061); assay: Competitive binding affinity to TMBIM6 in human A549 cells assessed as reduction in 13-oxyingenol dodecanoate binding to protein at 4 uM in presence of 6 fold 13-oxyingenol dodecanoate by pull down Western blot analysis; type: cell-based
[38] = molecular target: Bax inhibitor 1 (Homo sapiens) (UniProt P55061); assay: Competitive binding affinity to TMBIM6 in human A549 cells in presence of 2 to 6 fold of 13-oxyingenol dodecanoate by immunofluorescence analysis; type: cell-based
[39] = molecular target: Bax inhibitor 1 (Homo sapiens) (UniProt P55061); assay: Binding affinity to TMBIM6 in human A549 cells assessed as increase in co-localization in cytoplasm at 4 uM by immunofluorescence analysis; type: cell-based
[40] = molecular target: Bax inhibitor 1 (Homo sapiens) (UniProt P55061); assay: Binding affinity to TMBIM6 at Met-68 residue in human A549 cells by high-resolution mass spectrometric analysis; type: cell-based
[41] = molecular target: Bax inhibitor 1 (Homo sapiens) (UniProt P55061); assay: Binding affinity to TMBIM6 in human A549 cells at 4 uM by pull down Western blot analysis; type: cell-based

Activity [3] | Activity [5] | pIC50 [8] | pIC50 [11] | Activity [12] | pIC50 [14] | Activity [15] | Activity [16] | Activity [18] | inhibition [19] | SMILES | Activity [1] | selectivity ratio [2] | Activity [4] | Activity [6] | Activity [7] | Activity [9] | Activity [10] | Activity [13] | Activity [17] | Activity [20] | also measured
Active | Active | < 4.30 | 6.00 | Active | 5.21 | Active | Active | Active | Active | CCCCCCCCCCCC(=O)O[C@@]12C[C@@H](C)[C@]34C=C(C)[C@H](OC(=O)c5ccc([N+](=O)[O-])cc5)[C@@]3(O)[C@H](O)C(COC(=O)c3ccc([N+](=O)[O-])cc3)=C[C@H](C4=O)[C@@H]1C2(C)C | Active | 8.2 | Active | Active | Active | Active | Active | Active | Active | Active | 
Active | Active | 4.67 | 5.07 | Active | 5.33 | Active | Active | Active | Active | CCCCCCCCCCCC(=O)O[C@@]12C[C@@H](C)[C@]34C=C(C)[C@H](OC(=O)NCCC)[C@@]3(O)[C@H](O)C(CO)=C[C@H](C4=O)[C@@H]1C2(C)C | Active | 10.6 | Active | Active | Active | Active | Active | Active | Active | Active | 
 |  |  |  |  |  |  |  |  |  | C#CCCC1(CCNC(=O)O[C@H]2C(C)=C[C@]34C(=O)[C@@H](C=C(CO)[C@@H](O)[C@]23O)[C@@H]2C(C)(C)[C@]2(OC(=O)CCCCCCCCCCC)C[C@H]4C)N=N1 |  |  |  |  |  |  |  |  |  |  | Activity [37]: Active; Activity [38]: Active; Activity [39]: Active; pIC50 [31]: 4.86; pIC50 [35]: 5.09; Activity [40]: Active; Activity [41]: Active
Active | Active | 4.68 | 4.68 | Active | 5.59 | Active | Active | Active | Active | CCCCCCCCCCCC(=O)O[C@@]12C[C@@H](C)[C@]34C=C(C)[C@H](OC(=O)c5ccc(F)cc5)[C@@]3(O)[C@H](O)C(CO)=C[C@H](C4=O)[C@@H]1C2(C)C | Active | 19.8 | Active | Active | Active | Active | Active | Active | Active | Active | 

SMILES | Activity [3] | Activity [5] | pIC50 [8] | pIC50 [11] | Activity [12] | pIC50 [14] | Activity [15] | Activity [16] | Activity [18] | inhibition [19] | Activity [1] | selectivity ratio [2] | Activity [4] | Activity [6] | Activity [7] | Activity [9] | Activity [10] | Activity [13] | Activity [17] | Activity [20] | also measured
CCCCCCCCCCCC(=O)O[C@@]12C[C@@H](C)[C@]34C=C(C)[C@H](O)[C@@]3(O)[C@H](O)C(CO)=C[C@H](C4=O)[C@@H]1C2(C)C | Active | Active | 5.28 | 5.15 | Active | 5.41 | Active | Active |  |  | Active | 11.1 |  | Active |  | Active |  | Active |  | Active | Activity [21]: Tde; Activity [22]: Active; Activity [23]: inactive; Activity [24]: Active; Activity [25]: Active; Activity [26]: inactive; Activity [27]: Dose-Dependent Effect; Activity [28]: Active; inhibition [29]: Active; Activity [30]: inactive; pIC50 [31]: 4.76; Activity [32]: Active; Activity [33]: Dose-Dependent Effect; Activity [34]: Active; pIC50 [35]: 5.06; Activity [36]: inactive
